Like-named read-outs stand apart in the source and are kept apart here.
Tests used:
ED43-virus = assay type: cell-based, hepatitis C virus genotype 4a
[1] = system: SOFesc virus (ED43 sofosbuvir escape virus); experiment: microbe, parasite or virus in culture; assay type: cell-based; conditions: Hepatitis C virus, Huh7.5 cells, 48 hours treatment, read-out: EC50 (nM [95% CI])
[2] = system: original ED43 virus (HCV genotype 4a full-length culture virus); experiment: concentration-response (EC50) assay, original virus; conditions: Hepatitis C virus, Huh7.5, 48 h, read-out: EC50 (nM [95% CI])
Protocol: Huh7.5 cells were seeded on 96-well plates overnight, then infected with the indicated viruses for 24 hours. The cells were subsequently treated with specific inhibitors for an additional 48 hours before analysis as described (Pham et al. 2018; Gottwein et al. 2011). Values are means of triplicates±SEM. The original D43 virus was used in these two experiments as a control. TN (1a) virus was included for comparison.
Huhu7.5 cells were seeded on 96-well plates overnight, then infected with the indicated viruses for 24 hours. The cells were subsequently treated with specific inhibitors for an additional 48 hours before analysis as described (Pham et al. 2018; Gottwein et al. 2011). Values are means of triplicates±SEM. The original ED43 virus was used as a control. TN (1a) virus was included for comparison.
For concentration-response assays using described methods (Pham et al. 2018; Ramirez et al. 2016; Ramirez et al. 2014), stocks of non-treated and of single-treatment escape viruses were prepared. […] The half-maximal effective concentration (EC50) value was calculated using GraphPad Prism 6.

COC(=O)N[C@H](C(=O)N1CCC[C@H]1c1nc(-c2ccc3c(c2)O[C@@H](c2ccccc2)n2c-3cc3cc(-c4c[nH]c([C@@H]5CCCN5C(=O)[C@@H](NC(=O)OC)C(C)C)n4)ccc32)c[nH]1)C(C)C [elbasvir]
emergence of main RASs responsible for ED43 escape (ED43-virus; 100×EC50): 5 days

COC(=O)N[C@H](C(=O)N1CC2(CC2)C[C@H]1c1nc(-c2ccc3c(c2)C(F)(F)c2cc(-c4ccc5[nH]c([C@@H]6[C@H]7CC[C@H](C7)N6C(=O)[C@@H](NC(=O)OC)C(C)C)nc5c4)ccc2-3)c[nH]1)C(C)C [ledipasvir]
emergence of main RASs responsible for ED43 escape (ED43-virus; 100×EC50): 5 days

COC(=O)N[C@H](C(=O)N1CCC[C@H]1C(=O)Nc1ccc([C@@H]2CC[C@@H](c3ccc(NC(=O)[C@@H]4CCCN4C(=O)[C@@H](NC(=O)OC)C(C)C)cc3)N2c2ccc(C(C)(C)C)cc2)cc1)C(C)C [ombitasvir]
emergence of main RASs responsible for ED43 escape (ED43-virus; 100×EC50): 5 days

Cc1cnc(C(=O)N[C@H]2CCCCC/C=C\[C@@H]3C[C@@]3(C(=O)NS(=O)(=O)C3CC3)NC(=O)[C@@H]3C[C@@H](Oc4nc5ccccc5c5ccccc45)CN3C2=O)cn1 [paritaprevir]
emergence of RAS NS3P-D168E after treatment initiation (ED43-virus; 8×EC50): 7 days | viral escape / viral spread under treatment (ED43-virus; 8×EC50): 16 days

COC(=O)N[C@H](C(=O)N1CCC[C@H]1c1nc2cc([C@H]3CC[C@H](c4cc5nc([C@@H]6CCCN6C(=O)[C@@H](NC(=O)OC)[C@@H](C)OC)[nH]c5cc4F)N3c3cc(F)c(N4CCC(c5ccc(F)cc5)CC4)c(F)c3)c(F)cc2[nH]1)[C@@H](C)OC [pibrentasvir]
viral escape (ED43-virus; 5×EC50): ≤ 33 days | treatment outcome (ED43-virus; 10×EC50): viral eradication

CC(C)OC(=O)[C@H](C)N[P@](=O)(OC[C@H]1O[C@@H](n2ccc(=O)[nH]c2=O)[C@](C)(F)[C@@H]1O)Oc1ccccc1 [sofosbuvir]
EC50 [1]: 2250 nM | viral escape (ED43-virus; 2×EC50 (initiated at 1×EC50, increased at day 9)): 77 days | EC50 [2]: 668 nM

COC[C@H]1C[C@@H](c2nc(-c3ccc4c(c3)COc3cc5c(ccc6nc([C@@H]7CC[C@H](C)N7C(=O)[C@@H](NC(=O)OC)C(C)C)[nH]c65)cc3-4)c[nH]2)N(C(=O)[C@H](NC(=O)OC)c2ccccc2)C1 [velpatasvir]
viral escape (ED43-virus; 100×EC50): did not observe viral escape

Reference: patent US20240327801A1, “EFFICIENT CELL CULTURE SYSTEM FOR HEPATITIS C VIRUS GENOTYPE 4a” (Hvidovre Hospital, priority 2021, published 2024)
